Tested on: phospho-serine 2056 DNA-PK in HCT116 cells
Test: DNA-PK phosphorylation at serine 2056 (cellular), ELISA in bleomycin-treated HCT116 cells
Format: cell-based
Details: Homo sapiens, HCT-116, 6 h, cellular; HCT116 cells, 10 μM bleomycin, six hours; read-out: IC50 pDNA-PK
Method: HCT116 cells were cultivated at 37° C. and 10% CO2 in MEM alpha medium with 10% of foetal calf serum and 2 mM glutamine. The cells were detached from the base of the culture vessels with the aid of trypsin/EDTA, centrifuged off in centrifuge tubes, taken up in fresh medium, and the cell density was determined. 100,000 cells were sown in 1 ml of culture medium per cavity of a 24-well cell culture plate and cultivated overnight. Next day, 10 μM bleomycin (DNA intercalator and inductor of DNA double-strand breaks) and test substances in fresh culture medium were added to the cells, and these were cultivated for a further six hours. […] The 96-well ELISA plates were subsequently treated with a detection antibody (Abcam ab79444: total DNA-PK) and a streptavidin-HRP conjugate. The development of the enzymatic reaction was carried out with the aid of a chemiluminescent reagent, the chemiluminescence was measured with the aid of a Mithras LB940. The signals with the phospho-DNA-PK-specific antibody were standardised to the signal with the antibody against the total protein DNA-PKc. […] The DMSO control was used as blank.

Structure (SMILES)	IC50 [µM]
CN(C)c1ccc(C(O)c2ccc(F)c(-c3ncnc4cc(N5CCOCC5)ccc34)c2)nn1 (centres unmarked) [Example 68, (6-Dimethylamino-pyridazin-3-yl)-[4-fluoro-3-(7-morpholin-4-yl-quinazolin-4-yl)phenyl]-methanol]	5 to 10
COc1cnc(Cl)c(C(O)c2ccc(F)c(-c3ncnc4cc(N5CCOCC5)ccc34)c2)n1 (centres unmarked) [Example 26, (3-Chloro-6-methoxy-pyrazin-2-yl)-[4-fluoro-3-(7-morpholin-4-yl-quinazolin-4-yl)phenyl]-methanol]	< 0.5
OC(c1cccnn1)c1cc(-c2ncnc3cc(N4CCOCC4)ccc23)c(F)cc1F (centres unmarked) [Example 48, [2,4-Difluoro-5-(7-morpholin-4-yl-quinazolin-4-yl)phenyl]-pyridazin-3-ylmethanol]	0.5 to 5
CNC(=O)c1ccc(C(O)c2cc(-c3ncnc4cc(N5CCOCC5)ccc34)c(F)cc2Cl)nn1 (centres unmarked) [Example 43, 6-{[2-Chloro-4-fluoro-5-(7-morpholin-4-yl-quinazolin-4-yl)phenyl]-hydroxymethyl}-pyridazine-3-carboxylic acid methylamide]	0.5 to 5

Same assay, conditions: Homo sapiens, HCT-116, cellular DNA-PK phosphorylation at serine 2056, HCT116 cells; read-out: IC50 pDNA-PK

Structure (SMILES)	IC50 [µM]
COc1nccnc1C(O)c1cc(-c2ncnc3cc(N4CCOCC4)ccc23)c(F)cc1Cl (centres unmarked) [Example 468, [2-Chloro-4-fluoro-5-(7-morpholin-4-yl-quinazolin-4-yl)-phenyl]-(3-methoxy-pyrazin-2-yl)-methanol]	< 0.5
COc1cncnc1C(O)c1cc(-c2ncnc3cc(N4CCOCC4)ccc23)ccc1Cl (centres unmarked) [Example 408, [2-Chloro-5-(7-morpholin-4-yl-quinazolin-4-yl)-phenyl]-(5-methoxy-pyrimidin-4-yl)-methanol (Ena 2)]	0.5 to 5
Cn1cnc2ccnc(C(O)c3ccc(F)c(-c4ncnc5cc(N6CCOCC6)ccc45)c3)c21 (centres unmarked) [Example 461, [4-Fluoro-3-(7-morpholin-4-yl-quinazolin-4-yl)-phenyl]-(3-methyl-3H-imidazo[4,5-c]-pyridin-4-yl)methanol]	< 0.5
Cn1cnc2c(C(O)c3cc(-c4ncnc5cc(N6CCOCC6)ccc45)ccc3Cl)ncnc21 (centres unmarked) [Example 371, [2-Chloro-5-(7-morpholin-4-yl-quinazolin-4-yl)-phenyl]-(9-methyl-9H-purin-6-yl)-methanol]	0.5 to 5
OC(c1cc(-c2ncnc3cc(N4CCOCC4)ccc23)c(F)cc1Cl)c1ncnc2sccc12 (centres unmarked) [Example 429, [2-Chloro-4-fluoro-5-(7-morpholin-4-yl-quinazolin-4-yl)-phenyl]thieno[2,3-d}-pyrimidin-4-yl-methanol]	< 0.5
Cn1ncc2c(C(O)c3cc(-c4ncnc5cc(N6CCOCC6)ccc45)c(F)cc3Cl)ncnc21 (centres unmarked) [Example 402, [2-Chloro-4-fluoro-5-(7-morpholin-4-yl-quinazolin-4-yl)-phenyl]-(1-methyl-1H-pyrazolo[3,4-d}-pyrimidin-4-yl)-methanol]	0.5 to 5
COc1ccc(C(O)c2cc(-c3ncnc4cc(N5CCOCC5)ccc34)ccc2Cl)nn1 (centres unmarked) [Example 458, [2-Chloro-5-(7-morpholin-4-yl-quinazolin-4-yl)-phenyl]-(6-methoxy-pyridazin-3-yl)-methanol]	< 0.5
Cn1ncc2c(C(O)c3cc(-c4ncnc5cc(N6CCOCC6)ccc45)ccc3F)ncnc21 (centres unmarked) [Example 391, [2-Fluoro-5-(7-morpholin-4-yl-quinazolin-4-yl)-phenyl]-(1-methyl-1H-pyrazolo[3,4-d}-pyrimidin-4-yl)-methanol]	0.5 to 5
CCOc1cccnc1C(O)c1ccc(F)c(-c2ncnc3cc(N4CCOCC4)ccc23)c1 (centres unmarked) [Example 463, (3-Ethoxy-pyridin-2-yl)-[4-fluoro-3-(7-morpholin-4-yl-quinazolin-4-yl)-phenyl]methanol]	< 0.5

Same assay, conditions: Homo sapiens, HCT-116, phospho-serine 2056 DNA-PK, bleomycin-treated HCT116 cells; class symbols A-D; read-out: IC50 pDNA-PK

Structure (SMILES)	IC50 [µM]
CC(C)n1cc(C(O)c2ccc(F)c(-c3ncnc4cc(N5CCOCC5)ccc34)c2)cn1 (centres unmarked) [Example 197, [4-Fluoro-3-(7-morpholin-4-yl-quinazolin-4-yl)-phenyl]-(1-isopropyl-1 H-pyrazol-4-yl)-methanol]	5 to 10
Cn1cc(C(O)c2ccc(F)c(-c3ncnc4cc(N5CCOCC5)ccc34)c2)cn1 (centres unmarked) [Example 191, [4-Fluoro-3-(7-morpholin-4-yl-quinazolin-4-yl)-phenyl]-(1-methyl-1H-pyrazol-4-yl)-methanol]	10 to 30
Cc1nc(C(O)c2cnc(F)c(-c3ncnc4cc(N5CCOCC5)ncc34)c2)sc1C (centres unmarked) [Example 196, (4,5-Dimethyl-thiazol-2-yl)-[6-fluoro-5-(7-morpholin-4-yl-pyrido[4,3-d}-pyrimidin-4-yl)-pyridin-3-yl]-methanol]	10 to 30
OC(c1cccc(-c2ncnc3cc(N4CCOCC4)ccc23)c1)(c1nccs1)C(F)(F)F (centres unmarked) [Example 172, 2,2,2-Trifluoro-1-[3-(7-morpholin-4-yl-quinazolin-4-yl)-phenyl]-1-thiazol-2-ylethanol]	10 to 30

Same assay, conditions: Homo sapiens, HCT-116, phospho-serine 2056 DNA-PK, bleomycin-treated HCT116 cells; read-out: IC50 pDNA-PK

Structure (SMILES)	IC50 [µM]
OC(c1ccc(F)c(-c2ncnc3cc(N4CCOCC4)ccc23)c1)c1nncc2ccoc12 (centres unmarked) [Example 335, [4-Fluoro-3-(7-morpholin-4-yl-quinazolin-4-yl)-phenyl]furo[2,3-d}-pyridazin-7-yl-methanol]	< 0.5
NC(=O)C(c1cccnc1)c1ccc(F)c(-c2ncnc3cc(N4CCOCC4)ccc23)c1 (centres unmarked) [Example 295, 2-[4-Fluoro-3-(7-morpholin-4-yl-quinazolin-4-yl)-phenyl]-2-pyridin-3-ylacetamide]	10 to 30
Cc1nccnc1C(O)c1cc(-c2ncnc3cc(N4CCOCC4)cnc23)c(F)cc1Cl (centres unmarked) [Example 240, [2-Chloro-4-fluoro-5-(7-morpholin-4-yl-pyrido[3,2-d}-pyrimidin-4-yl)-phenyl]-(3-methyl-pyrazin-2-yl)-methanol]	0.5 to 5
O=c1[nH]nc(C(O)c2ccc(F)c(-c3ncnc4cc(N5CCOCC5)ccc34)c2)c2sccc12 (centres unmarked) [Example 337, 7-[[4-Fluoro-3-(7-morpholino-quinazolin-4-yl)-phenyl]hydroxy-methyl]-5H-thieno-[2,3-d}pyridazin-4-one]	0.5 to 5
COc1nccnc1C(C(N)=O)c1cc(-c2ncnc3cc(N4CCOCC4)cc(F)c23)c(F)cc1Cl (centres unmarked) [Example 261, 2-[2-Chloro-4-fluoro-5-(5-fluoro-7-morpholin-4-yl-quinazolin-4-yl)-phenyl]-2-(3-methoxy-pyrazin-2-yl)acetamide]	0.5 to 5
NC(=O)C(c1ccc(F)c(-c2ncnc3cc(N4CCOCC4)ccc23)c1)c1c(F)cncc1F (centres unmarked) [Example 321, 2-(3,5-Difluoro-pyridin-4-yl)-2-[4-fluoro-3-(7-morpholin-4-yl-quinazolin-4-yl)-phenyl]acetamide]	0.5 to 5
Cn1nc(C(O)c2ccc(F)c(-c3ncnc4cc(N5CCOCC5)ccc34)c2)ccc1=O (centres unmarked) [Example 326, 6-{[4-Fluoro-3-(7-morpholin-4-yl-quinazolin-4-yl)-phenyl]hydroxy-methyl}-2-methyl-2H-pyridazin-3-one]	0.5 to 5
COc1nccnc1C(C(N)=O)c1cc(-c2ncnc3cc(N4CCOCC4)ccc23)ccc1F (centres unmarked) [Example 316, 2-[2-Fluoro-5-(7-morpholin-4-yl-quinazolin-4-yl)-phenyl]-2-(3-methoxy-pyrazin-2-yl)acetamide]	5 to 10
COC(c1ccc(F)c(-c2ncnc3cc(N4CCOCC4)ccc23)c1)c1nccnc1C (centres unmarked) [Example 353, 4-{2-Fluoro-5-[methoxy-(3-methyl-pyrazin-2-yl)methyl]-phenyl}-7-morpholin-4-ylquinazoline (Ena 2)]	10 to 30
Cc1ncc(C(O)c2ccc(F)c(-c3ncnc4cc(N5CCOCC5)ccc34)c2)nc1C (centres unmarked) [Example 314, (5,6-Dimethyl-pyrazin-2-yl)-[4-fluoro-3-(7-morpholin-4-yl-quinazolin-4-yl)-phenyl]methanol]	0.5 to 5

Same assay, conditions: cellular DNA-PK phosphorylation at serine 2056, HCT116 cells; read-out: IC50 pDNA-PK

Structure (SMILES)	IC50 [µM]
COc1nccnc1C(O)c1cc(-c2ncnc3cc(N4CCOCC4)ccc23)c(F)cc1F (centres unmarked) [Example 454]	< 0.5

Same assay, conditions: cellular; HCT116 cells, 10 μM bleomycin, six hours; read-out: IC50 pDNA-PK

Structure (SMILES)	IC50 [µM]
COc1nnc(Cl)cc1C(O)c1ccc(F)c(-c2ncnc3cc(N4CCOCC4)ccc23)c1 (centres unmarked) [Example 9]	< 0.5

Same assay, conditions: phospho-serine 2056 DNA-PK, bleomycin-treated HCT116 cells; class symbols A-D; read-out: IC50 pDNA-PK

Structure (SMILES)	IC50 [µM]
COc1ccc(C(O)c2cc(-c3ncnc4cc(N5CCOCC5)sc34)c(F)cc2Cl)nn1 (single isomer, unassigned) [Example 126, [2-Chloro-4-fluoro-5-(6-morpholin-4-ylthieno[3,2-d}-pyrimidin-4-yl)-phenyl]-(6-methoxy-pyridazin-3-yl)-methanol]	< 0.5

Same assay, conditions: phospho-serine 2056 DNA-PK, bleomycin-treated HCT116 cells; read-out: IC50 pDNA-PK

Structure (SMILES)	IC50 [µM]
COc1ccc(C(O)c2cc(-c3ncnc4cc(N5CCOCC5)cc(F)c34)c(F)cc2Cl)nn1 (centres unmarked) [Example 271, [2-Chloro-4-fluoro-5-(5-fluoro-7-morpholin-4-yl-quinazolin-4-yl)-phenyl]-(6-methoxy-pyridazin-3-yl)-methanol (Ena 1)]	< 0.5
COc1ccc(C(C(N)=O)c2cc(-c3ncnc4cc(N5CCOCC5)ccc34)c(F)cc2Cl)nn1 (centres unmarked) [Example 325, 2-[2-Chloro-4-fluoro-5-(7-morpholin-4-yl-quinazolin-4-yl)-phenyl]-2-(6-methoxypyridazin-3-yl)acetamide]	10 to 30
